Laboratory results reported in US20230250436A1, “NUCLEIC ACID THAT INTERACTS WITH A RECEPTOR FOR ENDOCRINE DISRUPTING CHEMICALS AND USE THEREOF” (KUMIAI CHEMICAL INDUSTRY CO., LTD., priority 2020, published 2023).

Test system: juvenile hormone receptor of Daphnia magna (DampaMET)
Assay: Yeast reporter (β-galactosidase) assay, transformants with DampaMET and DampaSRC
Format: cell-based
Experimental: Subsequently, a reporter plasmid prepared by inserting the nucleotide sequence shown in SEQ ID NO: 2 into a yeast comprising the DampaMET plasmid and the DampaSRC plasmid introduced thereinto by the lithium acetate method. Thus, Yeast 1 of Invention was obtained. In the same manner, Yeasts 2 to 38 of Invention each comprising the response element according to the present invention and Control yeasts 1 to 9 shown in Table 3 were prepared.
With the use of the Yeast 1 of Invention, reporter activity to methyl farnesoate as a juvenile hormone substance was measured. At the outset, the Yeast 1 of Invention was subjected to pre-culture at 30° C. for 18 hours using the pre-culture medium shown in Table 1 until the turbidity (O.D. 595) of the pre-culture medium reached approximately 0.1. The solution of the pre-cultured cells (10 μl) and 1 μl of the solution of methyl farnesoate diluted to various concentrations with dimethyl sulfoxide (DMSO) were mixed with 90 μl of the main culture solution shown in Table 4 in a 96-well plate, and the mixture was subjected to static culture at 30° C. for 18 hours to prepare a reaction solution. The resultant was designated as a test group.
A reaction solution prepared with the addition of 1 μl of DMSO instead of a diluted methyl farnesoate solution was designated as a control group. Fractions of 10 μl each were collected from the reaction solutions and dispensed into each well of another 96-well plate. Thereafter, 100 μl of an assay reagent comprising a lytic solution (Z buffer: 60 mM Na2HPO4, 40 mM NaH2PO4, 1 mM MgCl2, 10 mM KCl, 2 mM dithiothreitol, 0.20% N-lauroylsarcosine sodium salt) mixed with 1 mg/ml ONPG (orthonitrophenylgalactopyranoside) was dispensed into each well, and the reaction was allowed to proceed at 37° C. for 30 minutes. Thereafter, the absorbance (O.D. 405) and the turbidity (O.D. 595) of the reaction solutions were assayed at the wavelength of 405 nm using a microplate reader (tradename: iMark microplate reader, Bio-Rad Laboratories). The increase of induction was calculated in accordance with the following formula.
The increase of induction is described in Ito-Harashima S et al., FEBS Open Bio., 7 (7): pp. 995-1008, 2017. When the increase of induction is positive, the transformant is determined to have reporter activity to the substance tested. The test was performed once or repeated 3 times, 5 times, or 15 times, and the average increase of induction was calculated. The control yeast 1 was treated in the same manner and reporter activity was compared.
In the same manner as in Test Example 1, the Yeasts 2, 3, 4, 5, 6, 7, 9, 10, 11, 12, 13, 14, 15, 16, 17, 18, 19, and 20 of Invention were subjected to assays of reporter activity to methyl farnesoate. The test was performed in accordance with Test Example 1, and reporter activity of the yeasts indicated above was compared with that of the control yeasts 2, 3, and 4.
With the use of the control yeast 7 comprising a different nucleotide sequence of the C-box (CACGCG) in the response element, the control yeast 8 comprising a different nucleotide sequence of the E-box (CACGTG), and the control yeast 9 comprising different nucleotide sequences of the C-box and the E-box from the relevant nucleotide sequences of the Yeast 4 of Invention, the influence of a core sequence on reporter activity to methyl farnesoate was evaluated. The test was performed in accordance with Test Example 1.
With the use of the Yeast 4 and the Yeast 8 of the present Invention, reporter activity to sex hormones; i.e., 17β-estradiol and testosterone, insect juvenile hormones; i.e., juvenile hormone III, and chemical substances suspected of having endocrine disrupting actions, such as 4-nonyl phenol, bisphenol A, 1,1,1-trichloro-2,2-bis(4-chlorophenyl)ethane (DDT), 2,2-bis(4-chlorophenyl)-1,1-dichloroethylene (DDE), and dieldrin, was assayed. The test was performed in accordance with Test Example 1. All the test substances were treated at 10 μM. […]

SMILES: COC(=O)/C=C(\C)CC/C=C(\C)CCC=C(C)C [methyl farnesoate]
- increase of induction (Control yeast 1 (cacgcggcggcacgtg x1), 100 pM): 0.01
- increase of induction (Control yeast 1 (cacgcggcggcacgtg x1), 1 nM): 0.00
- increase of induction (Control yeast 2 (cacgcggcggcacgtg x2), 10 nM): −0.29
- increase of induction (Control yeast 2 (cacgcggcggcacgtg x2), 100 nM): −0.27
- increase of induction (Control yeast 2 (cacgcggcggcacgtg x2), 1 μM): −0.34
- increase of induction (Control yeast 2 (cacgcggcggcacgtg x2), 10 μM): −0.21
- increase of induction (Control yeast 2 (cacgcggcggcacgtg x2), 100 μM): −0.14
- increase of induction (Control yeast 3 (cacgcggcggcacgtg x3), 10 nM): −0.12
- increase of induction (Control yeast 3 (cacgcggcggcacgtg x3), 100 nM): −0.21
- increase of induction (Control yeast 3 (cacgcggcggcacgtg x3), 1 μM): −0.27
- increase of induction (Control yeast 3 (cacgcggcggcacgtg x3), 10 μM): −0.17
- increase of induction (Control yeast 3 (cacgcggcggcacgtg x3), 100 μM): −0.17
- increase of induction (Control yeast 4 (cacgcggcggcacgtg x4), 10 nM): −0.84
- increase of induction (Control yeast 4 (cacgcggcggcacgtg x4), 100 nM): −1.49
- increase of induction (Control yeast 4 (cacgcggcggcacgtg x4), 1 μM): −1.82
- increase of induction (Control yeast 4 (cacgcggcggcacgtg x4), 10 μM): −1.05
- increase of induction (Control yeast 4 (cacgcggcggcacgtg x4), 100 μM): −2.06
- increase of induction (Control yeast 7 (SEQ ID NO: 25 x4, different C-box), 100 nM): −0.42
- increase of induction (Control yeast 7 (SEQ ID NO: 25 x4, different C-box), 10 μM): −0.12
- increase of induction (Control yeast 8 (SEQ ID NO: 28 x4, different E-box), 100 nM): 0.00
- increase of induction (Control yeast 8 (SEQ ID NO: 28 x4, different E-box), 10 μM): −0.02
- increase of induction (Control yeast 9 (SEQ ID NO: 31 x4, different C-box and E-box), 100 nM): −0.42
- increase of induction (Control yeast 9 (SEQ ID NO: 31 x4, different C-box and E-box), 10 μM): −0.12
- increase of induction (Yeast 1 of Invention (SEQ ID NO: 2 x1), 100 pM): 0.10
- increase of induction (Yeast 1 of Invention (SEQ ID NO: 2 x1), 1 nM): 0.08
- increase of induction (Yeast 2 of Invention (SEQ ID NO: 2 x2), 10 nM): 0.54
- increase of induction (Yeast 2 of Invention (SEQ ID NO: 2 x2), 100 nM): 1.26
- increase of induction (Yeast 2 of Invention (SEQ ID NO: 2 x2), 1 μM): 1.45
- increase of induction (Yeast 2 of Invention (SEQ ID NO: 2 x2), 10 μM): 1.64
- increase of induction (Yeast 2 of Invention (SEQ ID NO: 2 x2), 100 μM): 1.57
- increase of induction (Yeast 3 of Invention (SEQ ID NO: 2 x3), 10 nM): 2.05
- increase of induction (Yeast 3 of Invention (SEQ ID NO: 2 x3), 100 nM): 4.35
- increase of induction (Yeast 3 of Invention (SEQ ID NO: 2 x3), 1 μM): 4.45
- increase of induction (Yeast 3 of Invention (SEQ ID NO: 2 x3), 10 μM): 4.07
- increase of induction (Yeast 3 of Invention (SEQ ID NO: 2 x3), 100 μM): 4.29
- increase of induction (Yeast 4 of Invention (SEQ ID NO: 2 x4), 10 nM, Test Example 2): 5.13
- increase of induction (Yeast 4 of Invention (SEQ ID NO: 2 x4), 100 nM, Test Example 2): 7.55
- increase of induction (Yeast 4 of Invention (SEQ ID NO: 2 x4), 100 nM, Test Example 3): 0.42
- increase of induction (Yeast 4 of Invention (SEQ ID NO: 2 x4), 1 μM, Test Example 2): 7.12
- increase of induction (Yeast 4 of Invention (SEQ ID NO: 2 x4), 10 μM, Test Example 2): 7.44
- increase of induction (Yeast 4 of Invention (SEQ ID NO: 2 x4), 10 μM, Test Example 3): 0.51
- increase of induction (Yeast 4 of Invention (SEQ ID NO: 2 x4), 100 μM, Test Example 2): 7.47
- increase of induction (Yeast 5 of Invention (SEQ ID NO: 2 x5), 10 nM): 1.33
- increase of induction (Yeast 5 of Invention (SEQ ID NO: 2 x5), 100 nM): 3.29
- increase of induction (Yeast 5 of Invention (SEQ ID NO: 2 x5), 1 μM): 3.72
- increase of induction (Yeast 5 of Invention (SEQ ID NO: 2 x5), 10 μM): 3.76
- increase of induction (Yeast 5 of Invention (SEQ ID NO: 2 x5), 100 μM): 4.05
- increase of induction (Yeast 6 of Invention (SEQ ID NO: 5 x3), 10 nM): 0.33
- increase of induction (Yeast 6 of Invention (SEQ ID NO: 5 x3), 100 nM): 1.19
- increase of induction (Yeast 6 of Invention (SEQ ID NO: 5 x3), 1 μM): 1.18
- increase of induction (Yeast 6 of Invention (SEQ ID NO: 5 x3), 10 μM): 1.33
- increase of induction (Yeast 6 of Invention (SEQ ID NO: 5 x3), 100 μM): 1.33
- increase of induction (Yeast 7 of Invention (SEQ ID NO: 8 x3), 10 nM): 0.06
- increase of induction (Yeast 7 of Invention (SEQ ID NO: 8 x3), 100 nM): 0.26
- increase of induction (Yeast 7 of Invention (SEQ ID NO: 8 x3), 1 μM): 0.32
- increase of induction (Yeast 7 of Invention (SEQ ID NO: 8 x3), 10 μM): 0.36
- increase of induction (Yeast 7 of Invention (SEQ ID NO: 8 x3), 100 μM): 0.34
- increase of induction (Yeast 9 of Invention (SEQ ID NO: 34 x1), 100 nM): 0.19
- increase of induction (Yeast 9 of Invention (SEQ ID NO: 34 x1), 10 μM): 0.16
- increase of induction (Yeast 10 of Invention (SEQ ID NO: 34 x2), 100 nM): 0.08
- increase of induction (Yeast 10 of Invention (SEQ ID NO: 34 x2), 10 μM): 0.20
- increase of induction (Yeast 11 of Invention (SEQ ID NO: 34 x3), 100 nM): 0.22
- increase of induction (Yeast 11 of Invention (SEQ ID NO: 34 x3), 10 μM): 0.24
- increase of induction (Yeast 12 of Invention (SEQ ID NO: 34 x4), 100 nM): 1.43
- increase of induction (Yeast 12 of Invention (SEQ ID NO: 34 x4), 10 μM): 2.55
- increase of induction (Yeast 13 of Invention (SEQ ID NO: 34 x5), 10 μM): 0.09
- increase of induction (Yeast 14 of Invention (SEQ ID NO: 8 x1), 10 μM): 0.09
- increase of induction (Yeast 15 of Invention (SEQ ID NO: 8 x2), 100 nM): 0.09
- increase of induction (Yeast 15 of Invention (SEQ ID NO: 8 x2), 10 μM): 0.16
- increase of induction (Yeast 16 of Invention (SEQ ID NO: 8 x4), 100 nM): 0.65
- increase of induction (Yeast 16 of Invention (SEQ ID NO: 8 x4), 10 μM): 1.32
- increase of induction (Yeast 17 of Invention (SEQ ID NO: 37 x1), 100 nM): 0.06
- increase of induction (Yeast 17 of Invention (SEQ ID NO: 37 x1), 10 μM): 0.09
- increase of induction (Yeast 18 of Invention (SEQ ID NO: 37 x2), 100 nM): 0.10
- increase of induction (Yeast 19 of Invention (SEQ ID NO: 37 x3), 100 nM): 1.53
- increase of induction (Yeast 19 of Invention (SEQ ID NO: 37 x3), 10 μM): 2.27
- increase of induction (Yeast 20 of Invention (SEQ ID NO: 37 x4), 100 nM): 1.55
- increase of induction (Yeast 20 of Invention (SEQ ID NO: 37 x4), 10 μM): 1.85
- increase of induction (Yeast 25 of Invention (SEQ ID NO: 43 x1), 100 nM): 0.06
- increase of induction (Yeast 25 of Invention (SEQ ID NO: 43 x1), 10 μM): 0.15
- increase of induction (Yeast 26 of Invention (SEQ ID NO: 43 x2), 100 nM): 0.35
- increase of induction (Yeast 26 of Invention (SEQ ID NO: 43 x2), 10 μM): 0.38
- increase of induction (Yeast 27 of Invention (SEQ ID NO: 43 x3), 100 nM): 0.03
- increase of induction (Yeast 27 of Invention (SEQ ID NO: 43 x3), 10 μM): 0.64
- increase of induction (Yeast 28 of Invention (SEQ ID NO: 43 x4), 100 nM): 1.87
- increase of induction (Yeast 28 of Invention (SEQ ID NO: 43 x4), 10 μM): 2.51
- increase of induction (Yeast 29 of Invention (SEQ ID NO: 46 x1), 100 nM): 0.07
- increase of induction (Yeast 29 of Invention (SEQ ID NO: 46 x1), 10 μM): 0.07
- increase of induction (Yeast 30 of Invention (SEQ ID NO: 46 x2), 100 nM): 0.16
- increase of induction (Yeast 30 of Invention (SEQ ID NO: 46 x2), 10 μM): 0.07
- increase of induction (Yeast 31 of Invention (SEQ ID NO: 46 x3), 100 nM): 0.09
- increase of induction (Yeast 31 of Invention (SEQ ID NO: 46 x3), 10 μM): 0.23
- increase of induction (Yeast 32 of Invention (SEQ ID NO: 49 x1), 100 nM): 0.11
- increase of induction (Yeast 32 of Invention (SEQ ID NO: 49 x1), 10 μM): 0.31
- increase of induction (Yeast 33 of Invention (SEQ ID NO: 49 x2), 100 nM): 0.42
- increase of induction (Yeast 33 of Invention (SEQ ID NO: 49 x2), 10 μM): 0.22
- increase of induction (Yeast 34 of Invention (SEQ ID NO: 49 x3), 100 nM): 0.66
- increase of induction (Yeast 34 of Invention (SEQ ID NO: 49 x3), 10 μM): 2.15
- increase of induction (Yeast 35 of Invention (SEQ ID NO: 49 x4), 100 nM): 1.44
- increase of induction (Yeast 35 of Invention (SEQ ID NO: 49 x4), 10 μM): 1.05
